Reference: patent publication US20090105278A1, “Selective inhibitors of human corticosteroid syntheses” (Universitat Des Saarlandes, priority 2004, published 2009)
Where a name gives a salt, the structure may show the parent alone.

Key:
human placental CYP19 = target: T1, human placental CYP19 (Homo sapiens, UniProt P11511); test: IC50 of CYP19 (human placental microsomes); assay type: biochemical; conditions: human placental CYP19; testosterone substrate 2.5 μM
T1 construct: The enzyme was obtained from the microsome fraction of fresh human placenta; from tissue; host or cells: human placenta, microsomal fraction
T1 sequence (P11511 1-503): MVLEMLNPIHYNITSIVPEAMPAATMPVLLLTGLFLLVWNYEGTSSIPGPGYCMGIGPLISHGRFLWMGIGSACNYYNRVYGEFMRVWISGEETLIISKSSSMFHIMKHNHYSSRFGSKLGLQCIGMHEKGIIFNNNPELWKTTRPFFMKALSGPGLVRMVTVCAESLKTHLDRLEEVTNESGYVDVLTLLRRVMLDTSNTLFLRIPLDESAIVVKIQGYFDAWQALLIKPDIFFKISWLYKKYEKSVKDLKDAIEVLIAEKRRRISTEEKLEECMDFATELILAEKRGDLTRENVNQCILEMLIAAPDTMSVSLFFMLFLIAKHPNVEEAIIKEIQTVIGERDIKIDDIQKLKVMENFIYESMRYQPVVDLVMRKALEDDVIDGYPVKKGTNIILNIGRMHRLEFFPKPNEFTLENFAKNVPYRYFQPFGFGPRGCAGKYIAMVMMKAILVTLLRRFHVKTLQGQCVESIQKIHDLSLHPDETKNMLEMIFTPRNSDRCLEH
Procedure: The isolated microsomes were suspended in a minimum volume of phosphate buffer (0.05 M; pH 7.4; […]). In addition, DTT (10 mM) and EDTA (1 mM) were added to protect the enzyme from degradation reactions.
[…] […] The compounds to be tested were dissolved in DMSO and diluted with buffer to the desired concentration. The final DMSO concentration of the control and inhibitor incubations was about 20%. Each vessel was preincubated in a water bath at 30° C. for 5 min. The reaction was started by adding the microsomal protein (0.1 mg). The total volume of each mixture was 200 μl. After 14 min, the reaction was quenched by adding 200 μl of ice cold 1 mM HgCl2 solution. Two hundred microliters of a 2% aqueous suspension of dextran-coated charcoal, DCC) was added for absorbing the steroids, and the vessels were shaken for 20 min. Thereafter, the charcoal was centrifuged off at 1500 g for 5 min. The radioactive water present in the supernatant (^3H2O) was assayed by scintillation measurement using an LKB-Wallac beta counter. The calculation of the IC50 values was effected by a semilogarithmic plot of the percent inhibition against the inhibitor concentration.

human CYP17 = target: T2, human CYP17 (Homo sapiens, UniProt P05093); test: Percent inhibition of CYP17 (membrane fraction of E. coli pJL17/OR); assay type: biochemical; conditions: E. coli which expresses human CYP17; 5 mg/ml protein; progesterone substrate 2.5 μM; inhibitor 2.5 μM; read-out: % Inhibition human CYP17
T2 construct: made in house; host or cells: E. coli pJL17/OR (membrane fraction)
T2 sequence (P05093 1-508): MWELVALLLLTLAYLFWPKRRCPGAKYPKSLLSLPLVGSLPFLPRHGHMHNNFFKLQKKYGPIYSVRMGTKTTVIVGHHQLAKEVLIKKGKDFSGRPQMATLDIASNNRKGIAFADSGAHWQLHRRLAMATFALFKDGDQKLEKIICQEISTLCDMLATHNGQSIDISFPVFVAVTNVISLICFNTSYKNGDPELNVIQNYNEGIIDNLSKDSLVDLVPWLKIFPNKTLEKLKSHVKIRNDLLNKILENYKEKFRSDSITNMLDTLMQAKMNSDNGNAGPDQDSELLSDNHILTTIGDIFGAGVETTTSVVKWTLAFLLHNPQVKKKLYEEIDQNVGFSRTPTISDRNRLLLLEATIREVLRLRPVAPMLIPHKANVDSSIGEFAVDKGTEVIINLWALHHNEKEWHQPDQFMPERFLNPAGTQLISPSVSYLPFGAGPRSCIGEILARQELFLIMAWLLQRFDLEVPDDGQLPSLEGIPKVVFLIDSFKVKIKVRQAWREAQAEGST
Procedure: The recombinantly altered E. coli strain pJL17/OR, in which human CYP17 and rat NADPH-P450-reductase were coexpressed, was grown and stored according to the method of Ehmer et al. (Ehmer, P. B. et al., J. Steroid Biochem. Mol. Biol. 75: 57-63 (2000)). For isolating the membrane fraction, 5 ml of the bacterial cell suspension with an OD578 of 50 was washed with phosphate buffer (0.05 M; pH 7.4; 1 mM MgCl2; 0.1 mM EDTA and 0.1 mM DTT). The bacteria were removed by centrifugation and resuspended in 10 ml of ice cold TES buffer (0.1 M tris-acetate; pH 7.8; 0.5 mM EDTA; 0.5 M sucrose). Four milligrams of lysozyme in 10 ml of ice cold water was added to obtain a final concentration of 0.2 mg/ml. This was followed by incubation for 30 minutes under continued shaking on ice. The spheroblasts were obtained by a renewed centrifugation step at 12,000 g for 10 min and again resuspended in 3 ml of ice cold phosphate buffer (composition see above, additionally 0.5 mM PMSF).
After freezing and thawing, the cells were lysed on ice with an ultrasonic disintegrator. The whole cells and the cell debris were centrifuged off at 3000 g for 7 min. The supernatant was again centrifuged at 50,000 g for 20 min at 4° C. A membrane pellet sedimented and was resuspended in 2 ml of phosphate buffer (composition see above) with […] by means of an Ultra-Turrax mixer. […] Aliquots with an approximate protein concentration of 5 mg/ml were stored at −70° C. until use.
Control incubations were performed in parallel with 5 μl DMSO without urea. The reaction was started by adding 50 μl of a membrane suspension diluted 1 to 5 in phosphate buffer (0.8 to 1 mg of protein per ml). After thoroughly mixing the components, the mixture was incubated at 37° C. for 30 min.
The steroids were extracted with 1 ml of EtOAc. […] After the centrifugation, 800 μl of the organic phase was removed, placed into a new vessel and evaporated to dryness. The samples were dissolved in 50 μl of a water-methanol mixture (1:1) and analyzed by HPLC. The substrate conversion was calculated from the ratio of the areas of the product peaks (17α-hydroxyprogesterone and 16α-hydroxyprogesterone) to that of the substrate peak. The activity of the inhibitors was calculated from the reduced substrate conversion after the addition of inhibitors in accordance with the following formula: […]

human CYP11B2 [1] = target: T3, human CYP11B2 (Homo sapiens, UniProt P19099); test: Screening test in transgenic fission yeast (S. pombe PE1) expressing human CYP11B2; assay type: cell-based; parameters: expressed in transfected cells; conditions: S. pombe cells which express human CYP11B2, deoxycorticosterone substrate 100 nM, inhibitor 500 nM
T3 sequence (P19099 25-503): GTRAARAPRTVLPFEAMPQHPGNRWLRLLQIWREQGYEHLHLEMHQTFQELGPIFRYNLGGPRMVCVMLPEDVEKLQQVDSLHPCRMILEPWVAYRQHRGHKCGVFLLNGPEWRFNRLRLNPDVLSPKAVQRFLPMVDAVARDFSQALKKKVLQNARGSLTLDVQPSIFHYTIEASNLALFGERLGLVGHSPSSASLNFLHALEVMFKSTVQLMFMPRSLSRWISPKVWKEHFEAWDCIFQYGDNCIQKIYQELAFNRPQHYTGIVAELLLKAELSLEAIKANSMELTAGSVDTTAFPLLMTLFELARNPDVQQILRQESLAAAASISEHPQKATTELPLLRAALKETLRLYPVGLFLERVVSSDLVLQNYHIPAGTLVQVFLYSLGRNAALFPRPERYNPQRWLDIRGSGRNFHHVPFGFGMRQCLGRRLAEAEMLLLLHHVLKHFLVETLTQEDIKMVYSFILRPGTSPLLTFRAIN
Procedure: 492.5 μl of this cell suspension was admixed with 5 μl of inhibitor solution (50 μM of the compound to be tested in ethanol or DMSO) and incubated at 32° C. for 15 min. Controls were admixed with 5 μl of ethanol. […] The test was quenched by extracting the sample with 500 μl of EtOAc. After centrifugation (10,000 g, 2 min), the EtOAc phase was removed and evaporated to dryness. […] The reaction of the substrate to form corticosterone was analyzed by HPTLC (see below).
The quantification of the spots for the substrate deoxycorticosterone and the products corticosterone (and, if detectable, 18-hydroxycorticosterone and aldosterone) was effected with the related evaluation program AIDA. […] The calculation of the conversion rate was effected according to equation 1.
(§1) The plate was developed twice with the mobile solvent chloroform:methanol:water (300:20:1). Unlabeled 11-deoxycorticosterone and corticosterone were applied as a reference for the CYP11B1 reaction. For the CYP11B2 reaction, 11-deoxycorticosterone, corticosterone, 18-hydroxycorticosterone and aldosterone were used as references. The detection of the unlabeled references was effected at 260 nm. Subsequently, imaging plates (BAS MS2340, for ^14C samples, Raytest, Straubenhardt, Germany) were exposed to the HPTLC plates for 48 h. The imaging plates were scanned with the phosphoimager system Fuji FLA 3000 (Raytest, Straubenhardt, Germany), and the steroids were quantified.

human CYP11B2 [2] = target: T3, human CYP11B2; test: V79 MZh 11B2 cells inhibition test; assay type: cell-based; parameters: expressed in transfected cells; host or cells: V79 MZh11B2 (Chinese hamster lung fibroblasts); conditions: for IC50: hamster fibroblasts which express human CYP11B2, deoxycorticosterone substrate 100 nM, read-out: IC50 V79 11B2 hCYP11B2
Procedure: (§2) Both cell lines were cultured in DMEM^+ containing […] and the antibiotics penicillin and streptomycin (10%) for protection from bacterial contamination. The cells were passaged every 2-3 days after treatment with trypsin/EDTA because the doubling rate was 1-2 days depending on the number of cells. […] When there was further need, freshly thawed cells were employed.
(§3) Thereafter, the plate was stored at 37° C. and […] in a CO2 incubator. The V79 MZh 11B1 cells were incubated for 120 min, and the V79 MZh 11B2 cells were incubated for 40 min. Controls without inhibitor were treated in the same way. The enzyme reactions were quenched by extracting the supernatant with 500 μl of EtOAc. The samples were centrifuged (10,000 g, 2 min), the solvent was removed and evaporated.
For V79 MZh11B2, the conversion rate was obtained in accordance with equation 3: […]
(§4) It was calculated by determining the percent inhibition for at least 3 different inhibitor concentrations, which must all be in the linear range of the sigmoidal IC50 curve (log C/% inhibition).
(§5) The calculation was effected by linear regression. The values determined were used only if they formed a straight line with a reliability of […].
as §1

human CYP11B1 = target: T4, human CYP11B1 (Homo sapiens, UniProt P15538); test: V79 MZh 11B1 cells inhibition test; assay type: cell-based; conditions: for IC50: hamster fibroblasts which express human CYP11B1, deoxycorticosterone substrate 100 nM, read-out: IC50 V79 11B1 hCYP11B1
T4 construct: expressed in transfected cells; host or cells: V79 MZh11B1 (Chinese hamster lung fibroblasts)
T4 sequence (P15538 25-503): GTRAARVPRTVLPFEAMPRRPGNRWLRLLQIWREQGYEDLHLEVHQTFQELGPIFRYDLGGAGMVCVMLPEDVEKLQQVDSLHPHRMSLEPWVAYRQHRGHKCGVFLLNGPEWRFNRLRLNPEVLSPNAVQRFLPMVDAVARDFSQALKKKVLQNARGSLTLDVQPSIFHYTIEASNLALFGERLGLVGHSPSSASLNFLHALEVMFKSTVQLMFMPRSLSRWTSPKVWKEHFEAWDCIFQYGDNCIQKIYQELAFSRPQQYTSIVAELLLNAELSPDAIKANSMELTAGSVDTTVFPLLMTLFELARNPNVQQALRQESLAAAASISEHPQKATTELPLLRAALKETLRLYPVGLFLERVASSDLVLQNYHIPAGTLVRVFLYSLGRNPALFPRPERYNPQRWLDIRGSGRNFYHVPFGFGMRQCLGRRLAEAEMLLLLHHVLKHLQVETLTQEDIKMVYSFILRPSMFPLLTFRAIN
Procedure: as §2
as §3, with “The V79 MZh 11B1 cells were incubated for 120 min, and the V79 MZh 11B2 cells were incubated for 40 min.” left out
as §4, §5, §1

For `COc1cc2c(cc1OC)/C(=C/c1cccnc1)CCC2.Cl`, the melting point was 197 °C.
With `COc1cc2c(cc1OC)/C(=C/c1ccncc1)CCC2.Cl` the melting point was 197 °C.
In the case of `C(=C1c2ccccc2-c2ccccc21)c1cccnc1.Cl`, the melting point is reported as 241 °C.
In the case of `Cl.N#Cc1ccc2c(c1)/C(=C/c1cnc[nH]1)CCC2`, the melting point is reported as 217 °C.
`N#Cc1ccc2c(c1)/C(=C\c1cnc[nH]1)CCC2.O=C(O)C(=O)O` showed a melting point of 197 °C.
In the case of `Fc1ccc2c(c1)CC/C2=C\c1cnc[nH]1` (as salt: chloride) [Compound 47a, 5-[(E)-(5-Fluoro-2,3-dihydro-1H-indene-1-ylidenemethyl]-1H-imidazolium chloride], the melting point is reported as 245 °C.
In the case of `Fc1ccc2c(c1)CC/C2=C\c1cccnc1` (as salt: hydrochloride) [Compound 5a, 3-[(E)-(5-Fluoro-2,3-dihydro-1H-indane-1-ylidene)methyl]pyridine Hydrochloride], the melting point is reported as 245 °C.
`C(=C1/CCc2ccccc21)/c1ccncc1` [Compound 2a, 4-[(E)-2,3-Dihydro-1H-indane-1-ylidenemethyl]pyridine Oxalate] gave an IC50 (human placental CYP19) of 6700 nM, an inhibition at 2.5 µM (human CYP17) of 8% and an inhibition at 0.5 µM (human CYP11B2 [1]; read-out: % Inhibition human hCYP11B2) of 55%.
With `C/C(=C1/CCc2ccccc21)c1cccnc1.Cl` [Compound 38a, 3-[(1E)-1-(2,3-Dihydro-1H-indane-1-ylidene)ethyl]pyridine Hydrochloride] the IC50 (human CYP11B2 [2]) was 96.1 nM, the IC50 (human CYP11B1) was 159 nM and the “% Inhibition human hCYP11B2” value (human CYP11B2 [1]) was 67%.
With `c1cncc(-c2ccc3cccc4c3c2CC4)c1` [Compound 50, 3-(1,2-Dihydroacenaphthylene-3-yl)pyridine] the “Selectivity factor IC50 (CYP11B1)/IC50 (CYP11B2)” value (human CYP11B2 [2]; V79 cells expressing human CYP11B1 or CYP11B2) was 245, the IC50 (human CYP11B2 [2]) was 10 nM and the “Inhibition of human CYP11B1, in words” value (human CYP11B1; V79 cells) was “very weak inhibition”. For the same compound, the IC50 (human CYP11B1) was 2450 nM.
